Assay results reported in ChEMBL document CHEMBL5303304, “EUbOPEN Chemogenomics Library - IncuCyte” (2023).
Several values for one entry are separate records, joined by “and”; a condition that tells them apart may be missing. Equal values may be shown once.

What was measured:
Format in all cases: toxicity, cell-based
[1] = test system: Fibroblast; assay: Incucyte cell viability with human fibroblast; settings: 10 µM, compound concentration 10 uM
[2] = test system: HEK-293T; assay: Incucyte cell viability with HEK293T; settings: human, 10 µM, compound concentration 10 uM
[3] = test system: U2OS; assay: Incucyte cell viability with U2OS; settings: human, 10 µM, compound concentration 10 uM
Note: unitless GR value; below 1 slowed growth and below 0 cell loss.

| SMILES | Growth Rate ([1]; 6 h, replicate number 1) | Growth Rate ([1]; 12 h, replicate number 1) | Growth Rate ([1]; 12 h, replicate number 2) | Growth Rate ([1]; 18 h, replicate number 1) | Growth Rate ([1]; 24 h, replicate number 1) | Growth Rate ([1]; 24 h, replicate number 2) | Growth Rate ([2]; 6 h, replicate number 2) | Growth Rate ([2]; 12 h, replicate number 2) | Growth Rate ([2]; 18 h, replicate number 2) | Growth Rate ([2]; 24 h, replicate number 2) | Growth Rate ([3]; 6 h, replicate number 1) | Growth Rate ([3]; 6 h, replicate number 2) | Growth Rate ([3]; 12 h, replicate number 2) | Growth Rate ([3]; 18 h, replicate number 1) | Growth Rate ([3]; 18 h, replicate number 2) | Growth Rate ([3]; 24 h, replicate number 1) | Growth Rate ([3]; 24 h, replicate number 2) | Growth Rate ([1]; 0 h, replicate number 1) | Growth Rate ([1]; 18 h, replicate number 2) | Growth Rate ([2]; 18 h, replicate number 1) | other results |
| --- | --- | --- | --- | --- | --- | --- | --- | --- | --- | --- | --- | --- | --- | --- | --- | --- | --- | --- | --- | --- | --- |
| CCCCCCCC/C=C\CCCCCCCC(=O)NCCO [OLEOYLETHANOLAMIDE] | 0.19 | 0.64 | 0.96 | 0.35 | 0.78 | 0.98 | 0.43 | 0.83 | 0.75 | 0.62 | 0.87 | 0.54 | 0.68 | 0.81 | 0.74 | 0.79 | 0.76 | – | – | – | Growth Rate ([2]; 0 h, replicate number 1): -0.38; Growth Rate ([3]; 0 h, replicate number 1): -0.18; Growth Rate ([3]; 0 h, replicate number 2): 0.62; Growth Rate ([3]; 12 h, replicate number 1): 0.87 |
| CCCCCCCC/C=C\CCCCCCCC(=O)NCc1ccc(O)c(OC)c1 [OLVANIL] | – | – | 0.83 | – | 0.91 | 0.68 | – | – | – | – | 0.77 | 0.84 | 0.94 | 0.88 | – | 0.87 | – | 0.97 | 0.53 | -0.47 | Growth Rate ([1]; 0 h, replicate number 2): -0.71; Growth Rate ([2]; 0 h, replicate number 2): 0.7; Growth Rate ([2]; 6 h, replicate number 1): -0.94; Growth Rate ([2]; 12 h, replicate number 1): -0.75; Growth Rate ([2]; 24 h, replicate number 1): -0.25 |
| O=C(O)/C=C/c1ccc(Cn2ccnc2)cc1 [OZAGREL] | – | – | – | 0.97 | 0.78 | – | – | 0.92 | – | – | 0.91 | – | 0.94 | – | – | 0.94 | – | -1 | – | 0.96 | Growth Rate ([1]; 0 h, replicate number 2): -0.85; Growth Rate ([2]; 0 h, replicate number 1): 0.5; Growth Rate ([2]; 0 h, replicate number 2): 0.4; Growth Rate ([3]; 0 h, replicate number 2): 0.65 |
| CC(=O)O[C@H]1C(=O)[C@@]2(C)[C@H]([C@H](OC(=O)c3ccccc3)[C@]3(O)C[C@H](OC(=O)[C@H](O)[C@@H](NC(=O)c4ccccc4)c4ccccc4)C(C)=C1C3(C)C)[C@]1(OC(C)=O)CO[C@@H]1C[C@@H]2O [PACLITAXEL] | -0.64 | -0.7 | -0.57 | -0.54 | -0.39 | -0.34 | -0.69 | -0.41 | -0.22 | -0.02 | -0.32 | -0.43 | -0.45 | -0.26 | -0.43 | -0.07 | -0.18 | -1 | -0.67 | -0.08 | Growth Rate ([1]; 6 h, replicate number 2): -0.99; Growth Rate ([2]; 6 h, replicate number 1): -0.33; Growth Rate ([2]; 12 h, replicate number 1): -0.21; Growth Rate ([2]; 24 h, replicate number 1): 0.05; Growth Rate ([3]; 0 h, replicate number 1): -0.26; Growth Rate ([3]; 0 h, replicate number 2): -0.23; Growth Rate ([3]; 12 h, replicate number 1): -0.21 |
| CC(=O)c1c(C)c2cnc(Nc3ccc(N4CCNCC4)cn3)nc2n(C2CCCC2)c1=O [PALBOCICLIB] | 0.91 | 0.92 | – | 0.87 | 0.79 | – | 0.69 | 0.81 | 0.8 | 0.75 | 0.72 and 0.58 | 0.97 | – | 0.59 and 0.72 | – | 0.76 and 0.92 | – | -0.2 | 0.98 | 0.78 | Growth Rate ([2]; 0 h, replicate number 1): 0.2; Growth Rate ([2]; 0 h, replicate number 2): 0.78; Growth Rate ([2]; 6 h, replicate number 1): 0.61; Growth Rate ([2]; 12 h, replicate number 1): 0.77; Growth Rate ([2]; 24 h, replicate number 1): 0.83 and 0.98; Growth Rate ([3]; 12 h, replicate number 1): 0.87 and 0.84 |
| Cl.O=C1c2cccc3c2[C@H](CCC3)CN1[C@@H]1CN2CCC1CC2 [PALONOSETRON HYDROCHLORIDE] | -0.99 | – | – | – | – | 0.92 | -0.08 | 0.03 | 0.08 | 0.19 | – | – | – | – | – | 0.92 | 0.98 | – | – | 0.55 | Growth Rate ([1]; 0 h, replicate number 2): 0.54; Growth Rate ([2]; 0 h, replicate number 1): 0.61; Growth Rate ([2]; 6 h, replicate number 1): 0.51; Growth Rate ([2]; 12 h, replicate number 1): 0.41; Growth Rate ([2]; 24 h, replicate number 1): 0.34; Growth Rate ([3]; 0 h, replicate number 1): -0.52; Growth Rate ([3]; 0 h, replicate number 2): -0.79 |
| Cl.Cl.Fc1ccc([C@@H]2CCNC[C@H]2COc2ccc3c(c2)OCO3)cc1.Fc1ccc([C@@H]2CCNC[C@H]2COc2ccc3c(c2)OCO3)cc1.O [PAROXETINE HYDROCHLORIDE] | -0.26 | -1 | 0.54 | – | – | 0.62 | – | – | – | 0.86 | 0.82 | 0.89 | 0.84 | – | 0.89 | – | 0.98 | – | 0.59 | – | Growth Rate ([1]; 6 h, replicate number 2): -1; Growth Rate ([2]; 6 h, replicate number 1): 0.25; Growth Rate ([3]; 0 h, replicate number 2): -1 |
| CCN1C(=O)N(c2c(F)c(OC)cc(OC)c2F)Cc2cnc3[nH]c(CN4CCOCC4)cc3c21 [PEMIGATINIB] | 0.04 | 0.42 | 0.45 | 0.23 | 0.19 | 0.49 | 0.25 | 0.59 | 0.33 | 0.3 | 0.58 | -0.01 | 0.07 | 0.5 | 0.2 | 0.62 | 0.19 | – | 0.53 | 0.68 | Growth Rate ([1]; 0 h, replicate number 2): 0.11; Growth Rate ([1]; 6 h, replicate number 2): 0.12; Growth Rate ([2]; 0 h, replicate number 1): 0; Growth Rate ([2]; 12 h, replicate number 1): 0.76; Growth Rate ([2]; 24 h, replicate number 1): 0.57; Growth Rate ([3]; 0 h, replicate number 1): -0.31; Growth Rate ([3]; 0 h, replicate number 2): -0.02; Growth Rate ([3]; 12 h, replicate number 1): -0.36 |
| FC(F)(F)c1ccc(CNc2ccc(Cc3c[nH]c4ncc(Cl)cc34)cn2)cn1 [PEXIDARTINIB] | 0.64 | 0.87 | 0.34 | – | – | – | – | – | – | – | – | – | – | – | – | 0.95 | 0.98 | -1 | 0.9 | – | Growth Rate ([1]; 6 h, replicate number 2): 0.13; Growth Rate ([2]; 0 h, replicate number 2): -0.38 |
| CC(=O)NCC(=O)N1[C@@H]2CC[C@H]1c1ccc(Nc3ncc(C(F)(F)F)c(NC4CCC4)n3)cc12 [PF-03814735] | -1 | – | 0.65 | 0.52 | 0.86 | 0.08 | -0.94 | -0.75 | -0.55 | -0.39 | – | 1 | -0.14 | 0.03 | -0.08 | 0.02 | -0.08 | -0.26 | 0.15 | -0.72 | Growth Rate ([2]; 6 h, replicate number 1): -0.95; Growth Rate ([2]; 12 h, replicate number 1): -0.89; Growth Rate ([2]; 24 h, replicate number 1): -0.57; Growth Rate ([3]; 0 h, replicate number 1): -0.94; Growth Rate ([3]; 12 h, replicate number 1): -0.05 |
| Cn1nccc1-c1ccc(Sc2cccc(C3(C(N)=O)CCOCC3)c2)cc1 [PF-4191834] | -0.12 | 0 | 0.52 | -0.01 | 0.22 | 0.46 | -0.28 | -0.18 | 0 | 0.15 | 0.7 | 0.8 | 0.79 | 0.94 | 0.88 | 0.76 | 0.93 | – | 0.45 | 0.29 | Growth Rate ([1]; 0 h, replicate number 2): -0.66; Growth Rate ([1]; 6 h, replicate number 2): 0.25; Growth Rate ([2]; 0 h, replicate number 1): 0.41; Growth Rate ([2]; 6 h, replicate number 1): -0.02; Growth Rate ([2]; 12 h, replicate number 1): 0.37; Growth Rate ([2]; 24 h, replicate number 1): 0.31 |
| COc1ccc(-c2cc3c(C)nc(N)nc3n([C@H]3CC[C@H](OCCO)CC3)c2=O)cn1 [PF-04691502] | 0.8 | 0.03 | -0.28 | -0.18 | -0.23 | -0.32 | -0.8 | -0.6 | -0.38 | -0.25 | – | – | – | 0.65 | 0.83 | 0.6 | 0.62 | -1 | -0.29 | -0.17 | Growth Rate ([1]; 6 h, replicate number 2): 0.33; Growth Rate ([2]; 6 h, replicate number 1): -0.19; Growth Rate ([2]; 12 h, replicate number 1): -0.29; Growth Rate ([2]; 24 h, replicate number 1): -0.14; Growth Rate ([3]; 0 h, replicate number 1): -0.97 |
| C[C@@H](C(N)=O)[C@H](N)c1nc2cc(C(C)(C)C)ccc2[nH]1 [PF-06305591] | -0.98 | -0.52 | – | – | – | – | 0.51 | 0.9 | 0.91 | 0.94 | – | – | 0.86 | – | 0.91 | 0.95 | 0.99 | 0.3 | 0.77 | – | Growth Rate ([3]; 0 h, replicate number 1): -0.1; Growth Rate ([3]; 0 h, replicate number 2): -0.8; Growth Rate ([3]; 12 h, replicate number 1): 0.69 |
